Laboratory results published in patent publication US9228089B2, “Polyester polyamine and polyester polyquaternary ammonium corrosion inhibitors” (AKZO NOBEL CHEMICALS INTERNATIONAL B.V., priority 2010, dated 2016).

Key:
[1] = bubble test, corrosion rate monitored by linear polarization resistance (LPR) in CO2-saturated synthetic Forties brine; details: 80 ppm active inhibitor, 54° C.
Procedure: The tests were carried out using the well-known “bubble test” method, see for instance the discussion in NACE International, Vol. 46, No. 5, pp 46-51 (May 2007), where corrosion rate is monitored by linear polarization resistance (LPR). First a baseline corrosion rate in the medium is established, and then corrosion rates with different amounts of inhibitor added are measured.
The detailed conditions for the tests were as follows: • Temperature 54° C. • CO2 CO2 Saturated at ambient pressure (˜0.9 bara partial pressure) • Liquids 100% Typical “Forties” (North Sea water) synthetic brine as shown below: • Chloride=42539 mg/l • Sulphate=0 mg/l • Barium=173 mg/l • Calcium=1979 mg/l • Strontium=351 mg/l • Magnesium=377 mg/l • Sodium=24973 mg/l • Potassium=341 mg/l • Bicarbonate=200 mg/l • Electrode Fabricated from AISI 1018 (UNS G10180), polished to 600 grit finish, degreased rinsed and dried • Inhibitor Concentration 4 hour precorrosion without inhibitor, then dose with 10 ppm of inhibitor and evaluate corrosion rate for at least 8 h, then add inhibitor so that the next level of total inhibitor dosage is reached according to Table 1. After each addition the corrosion rate is measured for at least 8 h. • Gas and partial pressure Ambient pressure test. […]

[2] = example 6 of PCT/EP2010/059325, cited from earlier work

Q: Which “% Protection at 80 ppm” value [1] does the source give for “C12-C16 Cocoalkyl di-methyl benzyl quaternary amine” here?
A: The value was 89.6%.

Q: What about the “% protection at 20 ppm” value ([2]; 20 ppm) of the same substance?
A: Its value is −28%.

Q: What about the “% protection at 50 ppm” value ([2]; 50 ppm) of the same substance?
A: Its value is 38%.
